The values below come from patent US5886027A, “Fungicidal compounds” (BTG International Limited, priority 1995, dated 1999).

The conditions of data set [1]: Jacobsen and Wengel, Pestic. Sci., 1986, 17, 686-690; cited from earlier work.
In data set [2] the test system is Pseudocercosporella herpotrichoides. Kind of data set: microbe, parasite or virus in culture. Format: cell-based, Pseudocercosporella herpotrichoides (eyespot).
The subject of data set [3] is Botrytis cinerea. Kind of data set: microbe, parasite or virus in culture. The class given is cell-based, Botrytis cinerea (grey mould).
Data set [4] has as its system Fusarium graminearum. Kind of data set: microbe, parasite or virus in culture. Format: cell-based.
In data set [5] the test system is Pseudocercosporella herpotrichoides. Kind of data set: Further in vitro assay, W-type and R-type isolates of Pseudocercosporella herpotrichoides. Format: cell-based.
Data set [6] relates to Pyricularia oryzae. Kind of data set: microbe, parasite or virus in culture. Format: cell-based.
The test system of data set [7] is Rhizoctonia solani. Kind of data set: microbe, parasite or virus in culture. Format: cell-based.
Data set [8] has as its system Aspergillus niger. Kind of data set: microbe, parasite or virus in culture. The class given is cell-based.
Data set [9] concerns Erysiphe graminis f.sp hordei. Also on record: species or system Erysiphe graminis f.sp hordei (barley powdery mildew). Conditions: in vivo.
In data set [10] the test system is Septoria tritici. Kind of data set: microbe, parasite or virus in culture. Format: cell-based, Septoria tritici (wheat leaf blotch).
The subject of data set [11] is Helminthosporium solani. Kind of data set: Further in vitro assay, isolates of Helminthosporium solani. Format: cell-based. Conditions: H. solani, Table 2(e).
For data set [12], the system named is Rhynchosporium secalis. Format: cell-based, Rhynchosporium secalis (barley leaf blotch).
Data set [13] deals with 14 day old seedlings. Kind of data set: Phytotoxic effects on sprayed 14 day old seedlings. Conditions: dosage levels below those currently used for triazole fungicides. Format: in vivo, barley.
The test system of data set [14] is Fusarium sulphureum. Kind of data set: Further in vitro assay, isolates of Fusarium sulphureum. Conditions: F. sulphureum, Table 2(f). The class given is cell-based.
In data set [15] the test system is Ustilago maydis. Kind of data set: microbe, parasite or virus in culture. Format: cell-based, Ustilago maydis (maize smut).
Data set [16] concerns Neurospora crassa. Kind of data set: microbe, parasite or virus in culture. Format: cell-based.
Setting [17] is: read-out: % inhibition of growth in colony diameter.
Setting [18] is: Rhizoctonia solani, read-out: % inhibition of growth in colony diameter.
The mark [19] stands for this setting: Aspergillus niger, read-out: % inhibition of growth in colony diameter.

The structures appear in SMILES notation. Converted amounts (≈) assume the structure as drawn. Bounds are passed on as bounds.

Turning to `CC(C)c1cc2c(o1)C(=O)c1ccccc1C2=O` [(A)], the fungicidal activity result in [1] is “inactive”.
For `CCC1(CC)CC2=C(O1)C(=O)c1ccccc1C2=O` [(B)], the fungicidal activity entry in [1] was “intermediate fungicidal activity”.
For the compound `c1ccc2[nH]cnc2c1` [Benzimidazole], the “Sensitivity (R)” value in data set [2] and in data set [4] (isolate JF18) was “R” throughout. In addition, the “Sensitivity (S/R)” value in data set [3] was “R and S”.
In the case of `COC(=O)Nc1nc2ccccc2[nH]1` [Carbendazim, reference compound], the “Sensitivity to Carbendazim” value in data set [5] (R-type isolate (first line)) is recorded as “Sensitive”; in [5] (R-type isolate (second line)), “Resistant”; in [5] (W-type isolate (first line)), “Sensitive”; in [5] (W-type isolate (second line)), “Resistant”. Moreover, the inhibition (commonly the drop in the measured response relative to a control, in per cent) at 1 µg/mL in [6] (setting [17]) stood at 14.7%; in data set [7] (setting [18]), 3.3%. For the same compound, the results for the inhibition at 4 µg/mL in data set [6] (setting [17]) and in data set [7] (setting [18]) were 99.4% and 81.2%, respectively.
With `CCCN(CCOc1c(Cl)cc(Cl)cc1Cl)C(=O)n1ccnc1` [Prochloraz, reference compound], the inhibition at 1 µg/mL in data set [8] (Aspergillus niger, 1 mg/l, read-out: % inhibition of growth in colony diameter) was found to be 97.1%.
Turning to `CC(C)(C)C(O)C(Oc1ccc(Cl)cc1)n1cncn1` (stereo not drawn) [Triadimenol], the “Sensitivity of isolate (S/R)” value in data set [9] was “S and R”.
Turning to `CC1OC2=C(C(=O)C(=O)c3ccccc32)C1(C)C` (stereo not drawn) [dunnione], the “anti-fungal activity (in words)” value is reported as “active” in [10]; “active” in [12]; “some activity” in [3]; “some activity” in data set [4] (Fusarium graminearum); “active” in [15]; “Significant activity” in data set [16]. Moreover, the “level of activity compared with azole fungicides currently in use” value in data set [10] is reported as “similar, or better”; in data set [12], “similar, or better”; in data set [15], “similar, or better”. The MIC in [10] (Zymoseptoria tritici, read-out: Sensitivity MIC) was found to be 5 µg/mL (≈ 20.6 µM). In addition, the “fungicidal activity (in words)” value was “active” in data set [8], “inconsistent” in [5] (Pseudocercosporella herpotrichoides), “active” in data set [6] and “active” in [7]. Besides, the inhibition at 4 µg/mL in data set [8] (setting [19]) stood at 30%; in data set [6] (setting [17]) it was 75%; in [7] (setting [18]), 37%. Further, the figures for the inhibition at 20 µg/mL in data set [8] (setting [19]), in data set [6] (setting [17]) and in data set [7] (setting [18]) were 99%, 99% and 93%, respectively. Besides, the inhibition at 100 µg/mL in data set [8] (setting [19]), in [6] (setting [17]) and in [7] (setting [18]) was 100% each time. The cross-resistance with thiabendazole result in [11] and in data set [14] was “no evidence of cross-resistance” each time. The IC50 in [2] (Oculimacula yallundae, read-out: Sensitivity ED50) was 17 µg/mL (≈ 70.2 µM); in data set [3] (Botrytis cinerea, read-out: Sensitivity ED50), above 20 µg/mL; in data set [4] (Fusarium graminearum, read-out: Sensitivity ED50) it was 20 µg/mL (≈ 82.6 µM); in [15] (Mycosarcoma maydis, ATCC14826, read-out: ED50) it was 3 µg/mL (≈ 12.4 µM); in [16] (Neurospora crassa, read-out: ED50), 2 µg/mL (≈ 8.26 µM). Also, the cross-resistance with carbendazim entry in data set [5] (Table 2(d)) is listed as “no evidence of cross-resistance”. Besides, the phytotoxic effects result in data set [13] is recorded as “no noticeable phytotoxic effects”. In data set [9], the “fungicidal effect (in words)” value is listed as “fungicidally effective”.
